Results on seven compounds are retold here after patent publication US20130096310A1, “ISOQUINOLINE DERIVATIVE” (TAISHO PHARMACEUTICAL CO., LTD., priority 2010, published 2013).

The target of the experiment is T1, CRTH2 (Homo sapiens, UniProt Q9Y5Y4).
T1 construct: expressed in transfected cells; host or cells: KB8 cells (human)
T1 sequence (Q9Y5Y4 1-395): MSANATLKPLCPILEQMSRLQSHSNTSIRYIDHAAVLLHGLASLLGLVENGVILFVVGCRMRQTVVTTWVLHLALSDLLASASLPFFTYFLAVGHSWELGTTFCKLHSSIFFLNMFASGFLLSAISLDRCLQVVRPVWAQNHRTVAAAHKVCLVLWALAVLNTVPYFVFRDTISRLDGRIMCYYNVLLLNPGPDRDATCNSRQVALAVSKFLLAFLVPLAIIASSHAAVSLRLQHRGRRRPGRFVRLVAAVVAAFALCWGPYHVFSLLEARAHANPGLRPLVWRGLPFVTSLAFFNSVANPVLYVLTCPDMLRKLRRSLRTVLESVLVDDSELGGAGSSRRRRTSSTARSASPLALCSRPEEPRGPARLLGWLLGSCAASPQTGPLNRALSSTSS
The experiment can be described thus: CRTH2 antagonist test: inhibition of PGD2-induced intracellular calcium ion concentration increase in KB8 cells. In kind it is cell-based. As to conditions: KB8 cells (human cells expressing CRTH2); PGD2 final concentration 100 nM; Fluo-4-AM, FDSS6000. Here is the method:
The antagonist activity of the compound of the present invention was considered by using the intracellular calcium ion concentration increase reaction induced when the prostaglandin D2 was added to KB8 cells, which are human cells on which CRTH2 is expressed.
Fluo-4-AM (SIGMA, final concentration: 1 μM) was added to KB8 cells, and the cells were incubated at 37° C. for 30 minutes, washed with phosphate buffer (Invitrogen), and then suspended in Hank's balanced salt solution (Invitrogen) containing a reaction buffer solution (10 mM HEPES (Invitrogen), and 1 mM calcium chloride (SIGMA)). The suspension was dispensed in a 96 well plate (Nunc) so that 2×10^5 cells/well were placed, and the compound of the present invention and PGD2 (final concentration: 100 nM) were added. The fluorescence intensity thereof was measured over time by using FDSS6000 (Hamamatsu Photonics), and thus the maximum fluorescence intensity value “d” was obtained. The same procedure was carried out in the absence of the compound, and the maximum fluorescence intensity value “e” was obtained; and the same procedure was carried out in the absence of the compound and in […], and the maximum fluorescence intensity value “f” was obtained.
The calcium ion concentration increase inhibition rate of a compound was calculated by the following calculation equation:
Inhibitory rate(%)=[1−(d−f)/(e−f)]×100
That is to say, by using calcium ion concentration increase inhibitory rates of compounds to be tested having various concentrations, the IC50 value was calculated according to a dose-dependent inhibition curve analyzed by using XLfit (IDBS) as a data analysis software, and the value was defined as an indicator of the antagonist activity.
Background: Calcium flux is commonly read through the fluorescence of an indicator in the cells.

One may read the IC50 as the concentration that gives 50% inhibition. `O=C(O)Cc1cnc(C(F)(F)c2ccc(C(=O)NCCc3ccc(Cl)cc3)cc2)c2ccccc12` [Example 2, {1-[(4-{[2-(4-chlorophenyl)ethyl]carbamoyl}phenyl)(difluoro)methyl]isoquinolin-4-yl}acetic acid]: the concentration for half-maximal inhibition (IC50) worked out at 0.036 µM.
The value for `Cc1cc(Cc2ncc(CC(=O)O)c3ccccc23)ccc1C(=O)NCCc1ccc(Cl)cc1` [Example 5, [1-(4-{[2-(4-chlorophenyl)ethyl]carbamoyl}-3-methylbenzyl)isoquinolin-4-yl]acetic acid] was 0.042 µM.
With `O=C(O)Cc1cnc(Cc2ccc(C(=O)NCCc3ccc(Cl)cc3)c(C(F)(F)F)c2)c2ccccc12` [Example 7, {1-[4-{[2-(4-chlorophenyl)ethyl]carbamoyl}-3-(trifluoromethyl)benzyl]isoquinolin-4-yl}acetic acid] the figure was 0.014 µM; with `COc1cc(Cc2ncc(CC(=O)O)c3ccccc23)ccc1C(=O)NCCc1ccc(Cl)cc1` [Example 3, [1-(4-{[2-(4-chlorophenyl)ethyl]carbamoyl}-3-methoxybenzyl)isoquinolin-4-yl]acetic acid], 0.017 µM.
Turning to `O=C(O)Cc1cnc(Cc2ccc(C(=O)NCCc3ccc(Cl)cc3)c(F)c2)c2ccccc12` [Example 6, [1-(4-{[2-(4-chlorophenyl)ethyl]carbamoyl}-3-fluorobenzyl)isoquinolin-4-yl]acetic acid], the IC50 came to 0.0087 µM.
The value for `CC(c1ccc(C(=O)NCCc2ccc(Cl)cc2)cc1)c1ncc(CC(=O)O)c2ccccc12` (stereo not shown) [Example 1, {1-[1-(4-{[2-(4-chlorophenyl)ethyl]carbamoyl}phenyl)ethyl]isoquinolin-4-yl}acetic acid] was 0.0044 µM; that for `O=C(O)Cc1cnc(Cc2ccc(C(=O)NCCc3ccc(Cl)cc3)cc2F)c2ccccc12` [Example 4, [1-(4-{[2-(4-chlorophenyl)ethyl]carbamoyl}-2-fluorobenzyl)isoquinolin-4-yl]acetic acid] was 0.015 µM.
